Data reported in ChEMBL document CHEMBL2303647, “Data associated with the publication PLoS ONE, 8(3), e57888, (2013) PMID: 23505445. Compounds: GSK PKIS; Assays: NIH NCATS”.
“Also recorded” adds a separate entry of the source.

Legend:
[1] = target: T1, Coelenterazine h 2-monooxygenase (Renilla reniformis, UniProt P27652)
T1 sequence (P27652 whole entry): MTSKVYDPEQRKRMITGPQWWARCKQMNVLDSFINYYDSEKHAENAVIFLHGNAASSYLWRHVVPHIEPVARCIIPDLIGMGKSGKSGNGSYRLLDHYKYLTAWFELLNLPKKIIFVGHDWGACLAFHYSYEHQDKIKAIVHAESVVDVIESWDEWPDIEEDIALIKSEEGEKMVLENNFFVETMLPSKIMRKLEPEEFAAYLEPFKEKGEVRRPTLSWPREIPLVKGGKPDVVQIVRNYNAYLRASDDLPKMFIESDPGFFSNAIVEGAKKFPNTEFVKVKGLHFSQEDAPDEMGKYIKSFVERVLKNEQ
Description: GSK_PKIS: Inhibition of Sea Pansy Luciferase (Data from PubChem: AID 652015) [NIH NCATS]

[2] = target: Luciferin 4-monooxygenase (Photinus pyralis, UniProt P08659)
Luciferin 4-monooxygenase, sequence (P08659 whole entry): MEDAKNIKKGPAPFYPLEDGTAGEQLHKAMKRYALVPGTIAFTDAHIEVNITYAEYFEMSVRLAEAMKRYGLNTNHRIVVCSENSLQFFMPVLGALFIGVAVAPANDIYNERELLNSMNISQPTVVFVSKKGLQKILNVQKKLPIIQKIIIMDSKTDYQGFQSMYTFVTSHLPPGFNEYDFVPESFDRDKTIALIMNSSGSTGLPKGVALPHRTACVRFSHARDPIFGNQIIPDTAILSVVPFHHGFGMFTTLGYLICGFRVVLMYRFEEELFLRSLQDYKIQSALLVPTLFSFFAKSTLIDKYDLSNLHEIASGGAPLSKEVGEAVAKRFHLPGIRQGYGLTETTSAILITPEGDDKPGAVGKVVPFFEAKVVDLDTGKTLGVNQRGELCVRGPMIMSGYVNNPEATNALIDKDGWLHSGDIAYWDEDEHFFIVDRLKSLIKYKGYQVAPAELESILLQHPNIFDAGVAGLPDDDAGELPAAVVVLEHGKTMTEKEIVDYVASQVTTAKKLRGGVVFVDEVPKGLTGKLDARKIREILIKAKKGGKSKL
Description: GSK_PKIS: Inhibition of Firefly Luciferase (Data from PubChem: AID 652016) [NIH NCATS]

| AC50 ([1]; read-out: AC50) [µM] | AC50 ([2]; read-out: AC50) [µM] | SMILES | AC50 [2] | AC50 [1] |
| --- | --- | --- | --- | --- |
| 3.66 |  | COc1cc2ncn(-c3cc(O[C@H](C)c4ccccc4Cl)c(C(N)=O)s3)c2cc1OC [GSK-237701A] | Phenotype: Inactive; Curve_Description: None |  |
| 20.6 |  | COc1cccc(COc2cc(-n3cnc4ccccc43)sc2C(N)=O)c1 [GW804482X] | Phenotype: Inactive; Curve_Description: None |  |
|  |  | CNC(=O)c1cccc(C#Cc2cncnc2Nc2ccc(OCc3cccc(F)c3)c(Cl)c2)c1 [GW772405X] | Phenotype: Inactive; Curve_Description: None | Phenotype: Inactive; Curve_Description: None |
|  | 0.58 | CN(c1ccc(NC(=O)Nc2c(Cl)cccc2Cl)cc1)c1ccnc(Nc2cccc(CS(C)(=O)=O)c2)n1 [GW809897X] |  | Phenotype: Inactive; Curve_Description: None |
|  |  | COc1cc(Nc2ncc3c(C)nc(-c4cccc(C(F)(F)F)c4)n3n2)cc(OC)c1OC [GW837331X] | Phenotype: Inactive; Curve_Description: None | Phenotype: Inactive; Curve_Description: None |
|  |  | Fc1cccc(COc2ccc(Nc3ncnc4sc(-c5ccco5)cc34)cc2Cl)c1 [GSK-969786A] | Phenotype: Inactive; Curve_Description: None | Phenotype: Inactive; Curve_Description: None |
|  |  | CC1=C(C(=O)Nc2ccc3[nH]ncc3c2)C(c2ccc(Cl)c(Cl)c2)CC(=O)N1 (centres undefined) [GSK-299115A] | Phenotype: Inactive; Curve_Description: None | Phenotype: Inactive; Curve_Description: None |
|  |  | CCn1c(-c2nonc2N)nc2ccc(F)cc21 [GW785404X] | Phenotype: Inactive; Curve_Description: None | Phenotype: Inactive; Curve_Description: None |
|  |  | CCn1c(-c2nonc2N)nc2cncc(C(=O)N3CC[C@H](N)C3)c21.Cl | Phenotype: Inactive; Curve_Description: None | Phenotype: Inactive; Curve_Description: None |
|  |  | FC(F)(F)c1cccc(Nc2nccc(-c3cnn4nc(-c5ccccc5)ccc34)n2)c1 [GW819077X] | Phenotype: Inactive; Curve_Description: None | Phenotype: Inactive; Curve_Description: None |
|  |  | COc1cc2ncn(-c3cc(OCc4ccccc4S(C)(=O)=O)c(C#N)s3)c2cc1OC [GSK-319347A] | Phenotype: Inactive; Curve_Description: None | Phenotype: Inactive; Curve_Description: None |
|  |  | CN1CCC(n2cnc(-c3ccc(F)cc3)c2-c2ccnc(N)n2)CC1 | Phenotype: Inactive; Curve_Description: None | Phenotype: Inactive; Curve_Description: None |
|  |  | COc1cc(C)c(NC(=O)CN(C)C)cc1Nc1nc(Nc2cccc(F)c2C(N)=O)c2cc[nH]c2n1 [GSK-2213727A] | Phenotype: Inactive; Curve_Description: None | Phenotype: Inactive; Curve_Description: None |
| 36.6 | 18.3 | COc1cc(Nc2nccc(Nc3ccc4c(C)n[nH]c4c3)n2)cc(OC)c1OC [GW612286X] |  |  |
|  |  | CCn1cc(-c2ccnc3[nH]ccc23)c(-c2cccc(NC(=O)Nc3ccc(OCc4ccccc4)cc3)c2)n1 [GSK-718429A] | Phenotype: Inactive; Curve_Description: None | Phenotype: Inactive; Curve_Description: None |
|  |  | CC(=O)Nc1cccc(C#Cc2cncnc2Nc2ccc(OCc3cccc(F)c3)c(Cl)c2)c1 [GW703087X] | Phenotype: Inactive; Curve_Description: None | Phenotype: Inactive; Curve_Description: None |
|  | 13 | NC(=O)c1cccc(Nc2nccc(Nc3cccc4[nH]ncc34)n2)c1 [GW782612X] |  | Phenotype: Inactive; Curve_Description: None |
|  |  | COc1cc2ncn(-c3cc(O[C@@H](C)c4ccccc4Cl)c(C(N)=O)s3)c2cc1OC [GSK-237700A] | Phenotype: Inactive; Curve_Description: None | Phenotype: Inactive; Curve_Description: None |
| 20.6 |  | CCn1c(-c2nonc2N)nc2c(C#CC(C)(C)O)nc(OCCNC)cc21.Cl [GSK-949675A] | Phenotype: Inactive; Curve_Description: None |  |
|  |  | Cc1ccc(C(=O)NC2CCCCC2)cc1-c1ccc(C(=O)NCC2CC2)cc1 [GW782907X] | Phenotype: Inactive; Curve_Description: None | Phenotype: Inactive; Curve_Description: None |
|  | 0.919 | N#Cc1c(NC(=O)c2ccc(F)cc2)sc2c1CCCC2 |  | Phenotype: Inactive; Curve_Description: None |
| 18.3 | 32.6 | O=C1Nc2ccc(-c3cccnc3)cc2C1=Cc1cc(Br)c(O)c(Br)c1 [GW429374A] |  |  |

| AC50 ([1]; read-out: AC50) [µM] | AC50 ([2]; read-out: AC50) [µM] | SMILES | AC50 [2] | AC50 [1] |
| --- | --- | --- | --- | --- |
|  |  | CS(=O)(=O)CCNCc1nc(-c2ccc3ncnc(Nc4ccc(OCc5cccc(C(F)(F)F)c5)cc4)c3c2)cs1.Cl [GW569530A] | Phenotype: Inactive; Curve_Description: None | Phenotype: Inactive; Curve_Description: None |
|  |  | COc1ccc(-c2nn3ncccc3c2-c2ccnc(Nc3cccc(C(F)(F)F)c3)n2)cc1 [GW827105X] | Phenotype: Inactive; Curve_Description: None | Phenotype: Inactive; Curve_Description: None |
|  |  | COc1cccc(Nc2nccc(-c3cnn4ncccc34)n2)c1 [PYRAZOLOPYRIDAZINE 1] | Phenotype: Inactive; Curve_Description: None | Phenotype: Inactive; Curve_Description: None |
|  |  | FC(F)(F)CNc1nccc(-c2cnn3ncccc23)n1 [GW683003X] | Phenotype: Activator; Curve_Description: None | Phenotype: Inactive; Curve_Description: None |
|  |  | NS(=O)(=O)c1ccc(N/N=C2\C(=O)Nc3ccc(-c4cnco4)cc32)cc1 [GW276655X] | Phenotype: Inactive; Curve_Description: None | Phenotype: Inactive; Curve_Description: None |
|  | 18.3 | COc1cccc(-n2ncc3c(N/N=C/c4cccc(F)c4)ncnc32)c1 [GW817394X] |  | Phenotype: Inactive; Curve_Description: None |
|  |  | CC1=C(C(=O)Nc2ccc3[nH]nc(C)c3c2)C(c2ccc(C(F)(F)F)cc2)CC(=O)N1 (centres undefined) [GSK-466314A] | Phenotype: Inactive; Curve_Description: None | Phenotype: Inactive; Curve_Description: None |
|  |  | CCN1CCC(C(=O)Nc2n[nH]c3nnc(-c4cccc(F)c4F)cc23)CC1.Cl | Phenotype: Inactive; Curve_Description: None | Phenotype: Inactive; Curve_Description: None |
|  |  | COc1cc2c(cc1Nc1nc(Nc3ccsc3C(N)=O)c3cc[nH]c3n1)N(C(=O)CN(C)C)CCC2(C)C [GSK-2163632A] | Phenotype: Inactive; Curve_Description: None | Phenotype: Inactive; Curve_Description: None |
|  | 18.3 | NS(=O)(=O)c1cccc(N/C=C2\C(=O)Nc3ccccc32)c1 [GW275616X] |  | Phenotype: Inactive; Curve_Description: None |
|  | 36.6 | CN1CCC(n2cnc(-c3ccc(F)cc3)c2-c2ccnc(NCCO)n2)CC1 |  | Phenotype: Inactive; Curve_Description: None |
|  |  | Fc1cccc(COc2ccc(Nc3ncnc4sc(-c5cccs5)cc34)cc2Cl)c1 [GW684626B] | Phenotype: Inactive; Curve_Description: None | Phenotype: Inactive; Curve_Description: None |
|  | 41.1 | c1cnn2ncc(-c3ccnc(NCCCN4CCOCC4)n3)c2c1 [GW683109X] |  | Phenotype: Inactive; Curve_Description: None |
|  |  | COc1ccc2ncn(-c3cc(O[C@H](C)c4ccccc4Cl)c(C(N)=O)s3)c2c1 [GSK-317314A] | Phenotype: Inactive; Curve_Description: None | Phenotype: Inactive; Curve_Description: None |
|  | 23.1 | Cl.Nc1nccc(-c2c(-c3ccc(F)cc3)ncn2C2CCNCC2)n1 | Phenotype: Inactive; Curve_Description: None | Phenotype: Inactive; Curve_Description: None; also recorded: Phenotype: Activator; Curve_Description: None |
| 23.1 | 29.1 | NS(=O)(=O)c1ccc(N/N=C2\C(=O)Nc3ccc4ncccc4c32)cc1 [GW305178X] |  |  |
|  |  | CN(C)CCCn1c(-c2nonc2N)nc2cnccc21 | Phenotype: Inactive; Curve_Description: None | Phenotype: Inactive; Curve_Description: None |
|  | 0.819 | N#Cc1c(NC(=O)c2ccccc2F)sc2c1CCCC2 [GW572738X] |  | Phenotype: Inactive; Curve_Description: None |
|  | 41.1 | CN(C)CCCNc1nccc(-c2c(-c3ccc(F)cc3)nn3cc(C(F)(F)F)ccc23)n1.CS(=O)(=O)O [GW618013A] |  | Phenotype: Inactive; Curve_Description: None |
|  |  | COc1cc(Nc2nccc(-c3cnn4ncccc34)n2)cc(OC)c1 [GW801372X] | Phenotype: Inactive; Curve_Description: None | Phenotype: Inactive; Curve_Description: None |
|  |  | CS(=O)(=O)CCNCc1ccc(-c2ccc3ncnc(Nc4ccc(OCc5cccc(C(F)(F)F)c5)cc4)c3c2)o1.Cl [GW567808A] | Phenotype: Inactive; Curve_Description: None | Phenotype: Activator; Curve_Description: None |

| SMILES | AC50 ([1]; read-out: AC50) [µM] | AC50 ([2]; read-out: AC50) [µM] | AC50 [2] | AC50 [1] |
| --- | --- | --- | --- | --- |
| Nc1nccc(C#Cc2cncnc2Nc2ccc(OCc3cccc(F)c3)c(Cl)c2)n1 [GW799251X] |  | 14.6 |  | Phenotype: Inactive; Curve_Description: None |
| CCn1c(-c2nonc2N)nc2c(C#CC(C)(C)O)ncc(OC[C@@H]3CCCN3)c21.O=C(O)C(F)(F)F [GSK-614526A] | 18.3 |  | Phenotype: Inactive; Curve_Description: None |  |
| Cl.Oc1cccc(-c2nc(-c3ccccc3)[nH]c2-c2ccncc2)c1 | 23.1 |  | Phenotype: Inactive; Curve_Description: None |  |
| O=S(=O)(CCOCc1ccc(-c2ccc3ncnc(Nc4ccc(OCc5cccc(F)c5)c(Cl)c4)c3c2)o1)c1ccccc1 [GW615311X] | 46.1 |  | Phenotype: Inactive; Curve_Description: None |  |
| COc1cc2ncn(-c3cc(OCc4cccs4)c(C(N)=O)s3)c2cc1OC [GSK-312948A] | 9.19 |  | Phenotype: Inactive; Curve_Description: None |  |
| Cc1nnc(-c2cccc(-c3ccc(C(=O)NCC4CC4)cc3)c2)o1 [GW734508X] | 36.6 |  | Phenotype: Inactive; Curve_Description: None |  |
